Source: patent US9255106B2, “Substituted [1,2,4]triazolo[4,3-a]pyrazines as PARP-1 inhibitors” (SHANGHAI INSTITUTE OF MATERIA MEDICA, CHINESE ACADEMY OF …, priority 2012, dated 2016)
Marks after values point to notes of the source that are not given here.

Key:
V8 cell = experiment: PARP1 inhibitory activity at cellular level (proliferation inhibition model); settings: read-out: PARP1 inhibitory activity at cellular level (%)
Capan-1 = experiment: Inhibition of tumor cell proliferation, Capan-1; settings: Homo sapiens
[1] = tested on: MDA-MB-436 human breast cancer; experiment: Antitumor activity in vivo, subcutaneously transplanted tumor in MDA-MB-436 human breast cancer nude mice; settings: for TV (mean ± SD) d0: d0 (at grouping); for RTV (mean ± SD) / T/C (%) / TV (mean ± SD) d21 / number of animals in which tumor regressed: d21; for number of animals in which tumor regressed: 6 animals
Protocol: A tumor tissue in vigorous growing period was cut into about 1.5 mm^3, and inoculated subcutaneously into right armpit of nude mice under a sterile condition. The diameter of subcutaneous transplant tumor in nude mice was measured by vernier caliper. When the tumor grew to 100-200 mm^3, the animals were randomly grouped. […] Solvent control group was administered saline in same volume. During the whole experiment, the tumor diameter was measured twice a week, while the body weight of mice was weighed simultaneously. The formula to calculate tumor volume (TV) was TV=½*a*b^2, wherein a and b respectively referred to length and width. Relative tumor volume (RTV) was calculated according to the measurements, and the formula is RTV=Vt/V0, wherein V0 is the tumor volume measured when the mice were grouped (i.e. d0), and Vt is the tumor volume measured each time.

PC-3 = experiment: Inhibition of tumor cell proliferation, PC-3; settings: Homo sapiens
OVCAR-8 = experiment: Inhibition of tumor cell proliferation, OVCAR-8; settings: Homo sapiens
[2] = in vivo; cited from earlier work
U87-MG = experiment: Inhibition of tumor cell proliferation, U87-MG; settings: Homo sapiens, U-87 MG
U251 = experiment: Inhibition of tumor cell proliferation, U251; settings: Homo sapiens, U-251

Row | Compound | inhibition at 0.0016 µM (V8 cell) | inhibition at 0.008 µM (V8 cell) | inhibition at 0.04 µM (V8 cell) | inhibition at 0.2 µM (V8 cell) | inhibition at 1 µM (V8 cell) | further results
1 | CC1CN(C(=O)c2cc(Cc3n[nH]c(=O)c4ccccc34)ccc2F)Cc2nnc(C(F)F)n21 (centres unmarked) [Compound S17] | 4.61% | 12.1% | 65.6% | 76.5% | 79.7% | –
2 | CC1c2nnc(C(F)(F)F)n2C(C)CN1C(=O)c1cc(Cc2n[nH]c(=O)c3ccccc23)ccc1F (centres unmarked) [Compound S5] | -5.06% | -3.01% | 23.5% | 63.8% | 73.5% | –
3 | COC1CN(C(=O)c2cc(Cc3n[nH]c(=O)c4ccccc34)ccc2F)Cc2nnc(C(F)(F)F)n21 (centres unmarked) [Compound S10] | 11.6% | 10.5% | 31.8% | 67.5% | 78.6% | –
4 | O=C(c1cc(Cc2n[nH]c(=O)c3ccccc23)ccc1F)N1CCN(C(=O)C2CC2)CC1 [AZD2281, olaparib, reference compound] | – | – | – | – | – | IC50 (Capan-1): 0.729 µM; TV (mean ± SD) d0 ([1]; 100 mg/kg, po, qd × 21): 127 ± 37 mm^3; RTV (mean ± SD) ([1]; 100 mg/kg, po, qd × 21): 0.95 ± 0.78**; T/C (%) ([1]; 100 mg/kg, po, qd × 21): 6.65%; TV (mean ± SD) d21 ([1]; 100 mg/kg, po, qd × 21): 120 ± 118 mm^3; IC50 (PC-3): 3.92 µM; IC50 (OVCAR-8): 12.4 µM; bioavailability [2]: < 15%; half-life time [2]: < 1 h; IC50 (U87-MG): 2.92 µM; IC50 (U251): 1.19 µM
5 | CC1c2nnc(CF)n2C(C)CN1C(=O)c1cc(Cc2n[nH]c(=O)c3ccccc23)ccc1F (centres unmarked) [Compound S19] | 2.09% | -2.17% | 3.32% | 0.4% | 0.69% | –
6 | CC1CN(C(=O)c2cc(Cc3n[nH]c(=O)c4ccccc34)ccc2F)Cc2nnc(CF)n21 (centres unmarked) [Compound S18] | 7.63% | 54.1% | 77% | 77% | 78.4% | –
7 | CC1c2nnc(C(F)(F)F)n2CCN1C(=O)c1cc(Cc2n[nH]c(=O)c3ccccc23)ccc1F (centres unmarked) [Compound S4] | -1.36% | 8.66% | 53.1% | 75.5% | 75.7% | –
8 | CC1CN(C(=O)c2cc(Cc3n[nH]c(=O)c4ccccc34)ccc2F)Cc2nnc(C(F)(F)F)n21 (racemic) [Compound S3] | -3.11% | 33.1% | 61.2% | 70.1% | 74.4% | IC50 (Capan-1): 0.0076 µM; TV (mean ± SD) d0 ([1]; 25 mg/kg, po, qd × 21): 127 ± 30 mm^3; RTV (mean ± SD) ([1]; 25 mg/kg, po, qd × 21): 1.40 ± 0.71**; T/C (%) ([1]; 25 mg/kg, po, qd × 21): 9.80%; TV (mean ± SD) d21 ([1]; 25 mg/kg, po, qd × 21): 165 ± 57 mm^3; number of animals in which tumor regressed ([1]; 25 mg/kg, po, qd × 21): 3; tumor outcome ([1]; 100 mg/kg): the tumor completely disappeared; side effects ([1]; 100 mg/kg and 25 mg/kg, po, qd × 21): no significant side effects; TV (mean ± SD) d0 ([1]; 100 mg/kg, po, qd × 21): 128 ± 36 mm^3; RTV (mean ± SD) ([1]; 100 mg/kg, po, qd × 21): 0.08 ± 0.04**; T/C (%) ([1]; 100 mg/kg, po, qd × 21): 0.59%; TV (mean ± SD) d21 ([1]; 100 mg/kg, po, qd × 21): 11 ± 7 mm^3; number of animals in which tumor regressed ([1]; 100 mg/kg, po, qd × 21): 1; IC50 (PC-3): 0.995 µM; IC50 (OVCAR-8): 10.5 µM; IC50 (U87-MG): 0.228 µM
